# According to patent US10501516B2, “Peptide compound” (TAKEDA PHARMACEUTICAL COMPANY LIMITED, priority 2016, dated 2019):
# Square brackets hold non-standard residues; d marks the D form. Side chains are listed from the residue outwards. Peptide text beside a SMILES is read from it. * marks the point of attachment. NMeY = CN[C@@H](Cc1ccc(O)cc1)C(=O)O; Palmitoyl = CCCCCCCCCCCCCCCC(=O)*; αMeF = C[C@](N)(Cc1ccccc1)C(=O)O; Iva = CC[C@](C)(N)C(=O)O; Aib = CC(C)(N)C(=O)O
# System: Male DIO C57BL/6J mice
# Test: Repeated dosing study in diet-induced obese (DIO) mice
# Assay type: in vivo, mouse
# Details: for ALT / AST / Insulin / TC / TG: plasma, mean ± SD
# Procedure: Male DIO C57BL/6J mice (40 weeks old) were divided into the groups based on the data of body weight, food intake, and plasma parameters. Vehicle or the compounds (P41) of Example 41 was subcutaneously administered once a day for 4 weeks. Body weight and food intake were monitored during the study. Compounds were dissolved in 10% DMSO/saline. After the study, blood was collected and plasma parameters were measured. At day 29, body composition was measured by EchoMRI (Hitachi Aloka Medical, Ltd., Japan) and the animals were sacrificed. For hematoxylin and eosin (HE) staining, livers were dissected from DIO mice after 4 weeks drug administration described in the above body-weight studies section. Livers were fixed in 4% paraformaldehyde, embedded in paraffin, sectioned, and stained with HE. After processing, the sections were mounted and then examined via light microscopy (NanoZoomer, Hamamatsu Photonics).
# Total RNA was isolated from the liver using QIAzol reagent (QIAGEN Japan, Tokyo, Japan) and cDNA was synthesized using High-Capacity cDNA Reverse Transcription Kit (Applied Biosystems, CA, USA). Quantitative RT-PCR was performed using the ABI Prism 7900 Sequence Detection System with EXPRESS qPCR Super Mix (Thermo Fisher Scientific Inc. MA. USA). Mixtures of primers and probes (Applied Biosystems) were used for the detection of mRNA (Table 4). The expression levels were normalized to those of beta-actin and Peptidyl isomerase A.
# Plasma glucose, triglyceride (TG), total cholesterol (TC), aspartate aminotransferase (AST), and alanine aminotransferase (ALT) were analyzed by Autoanalyzer 7180 (Hitachi High-Technologies Corporation, Japan). Blood glycated hemoglobin (GHb) was measured with the automated GHb analyzers (HLC-723G8, Tosoh, Tokyo, Japan). Liver triglyceride content was measured as follows: a piece of tissue was homogenized in saline and lipid was extracted by the addition of hexane:isopropanol (3:2) solution. The lipid phase was collected, dried and then dissolved in isopropanol. The concentration of triglyceride was measured by Triglyceride E-test (Wako Pure Chemical Industries, Ltd, Japan) and triglyceride content per g liver was calculated. Plasma insulin was measured with ELISA Assay kit (Shibayagi Co. Ltd., Japan).
# [1] = 3 nmol/kg s.c. once a day for 4 weeks
# [2] = 10 nmol/kg s.c. once a day for 4 weeks
# [3] = 30 nmol/kg s.c. once a day for 4 weeks
# [4] = 3, 10 and 30 nmol/kg s.c. once a day for 4 weeks, dose-dependent
# [5] = quantitative RT-PCR, liver, 4 weeks
compound,measurement,setting,value
CCCCCCCCCCCCCCCC(=O)NCC(=O)NCC(=O)NCC(=O)NCC(=O)NCCCC[C@H](NC(=O)[C@H](CC(=O)O)NC(=O)[C@H](CO)NC(=O)[C@@H](NC(=O)[C@](C)(Cc1ccccc1)NC(=O)[C@@H](NC(=O)CNC(=O)[C@H](CCC(=O)O)NC(=O)C(C)(C)NC(=O)[C@H](Cc1ccc(O)cc1)NC)[C@@H](C)O)[C@@H](C)O)C(=O)N[C@@H](CO)C(=O)N[C@H](C(=O)NC(C)(C)C(=O)N[C@@H](CC(C)C)C(=O)N[C@@H](CCC(=O)O)C(=O)N[C@@H](CCCCN)C(=O)N[C@@H](CCC(N)=O)C(=O)N[C@@H](CCCNC(=N)N)C(=O)N[C@@H](CCC(N)=O)C(=O)N[C@@](C)(CC)C(=O)N[C@@H](CCC(=O)O)C(=O)N[C@@H](Cc1ccccc1)C(=O)N[C@H](C(=O)N[C@@H](CCCNC(=N)N)C(=O)N[C@@H](Cc1c[nH]cn1)C(=O)N[C@@H](CC(C)C)C(=O)N[C@@H](CC(C)C)C(=O)N[C@@H](CC(N)=O)C(=O)N[C@@H](CCCCN)C(=O)NC(C)(C)C(=O)N[C@H](C(=O)N[C@@H](CCCNC(=N)N)C(=O)N[C@@H](CCC(N)=O)C(=O)N[C@@H](CCCNC(=N)N)C(=O)N[C@@H](Cc1ccc(O)cc1)C(N)=O)[C@@H](C)O)C(C)C)[C@@H](C)CC [Example 41] (H-[NMeY][Aib]EGT[αMeF]TSDK([Gly-Gly-Gly-Gly-Palmitoyl])SI[Aib]LEKQRQ[Iva]EFVRHLLNK[Aib]TRQRY-NH2),decrease in body weight compared with vehicle group,[1],14.6%
same,decrease in body weight compared with vehicle group,[2],30.0%
same,decrease in body weight compared with vehicle group,[3],37.1%
same,lean mass (EchoMRI),"3, 10 and 30 nmol/kg s.c. once a day for 4 weeks",subtle decrease
same,fat mass (EchoMRI),[4],drastic decrease
same,"inguinal, mesenteric and epididymal fat pad weight",[4],significantly decreased
same,liver TG content,[4],drastically decreased
same,liver weight,[4],drastically decreased
same,ALT,[1],94.2 ± 32.3 U/L
same,AST,[1],170.0 ± 37.2 U/L
same,Insulin,[1],4.9 ± 2.9 ng/mL
same,TC,[1],253.6 ± 11.9 mg/dL
same,TG,[1],50.5 ± 16.2 mg/dL
same,ALT,[2],35.6 ± 9.7 U/L
same,AST,[2],88.8 ± 11.7 U/L
same,Insulin,[2],3.7 ± 2.7 ng/mL
same,TC,[2],189.5 ± 22.1 mg/dL
same,TG,[2],62.2 ± 16.1 mg/dL
same,ALT,[3],37.5 ± 7.7 U/L
same,AST,[3],90.2 ± 10.3 U/L
same,Insulin,[3],5.2 ± 2.1 ng/mL
same,TC,[3],173.2 ± 16.4 mg/dL
same,TG,[3],50.2 ± 6.6 mg/dL
same,hepatic gene expression of inhibitor of fibrosis (MMP2),[5],tended to increase
same,"hepatic gene expression related to fibrosis (Timp1, Col1α) and inflammation (CCl2)",[5],tended to decrease
same,"hepatic lipid droplet, HE staining of liver slices",s.c. once a day for 4 weeks,Reduction of hepatic lipid droplet
